“And” between values parts separate entries of the source, which are not always exact repeats. Equal entries are not always repeated.

The assay has as its target T1, Alpha-1A adrenergic receptor (Rattus norvegicus, UniProt P43140).
T1 sequence (P43140 whole entry): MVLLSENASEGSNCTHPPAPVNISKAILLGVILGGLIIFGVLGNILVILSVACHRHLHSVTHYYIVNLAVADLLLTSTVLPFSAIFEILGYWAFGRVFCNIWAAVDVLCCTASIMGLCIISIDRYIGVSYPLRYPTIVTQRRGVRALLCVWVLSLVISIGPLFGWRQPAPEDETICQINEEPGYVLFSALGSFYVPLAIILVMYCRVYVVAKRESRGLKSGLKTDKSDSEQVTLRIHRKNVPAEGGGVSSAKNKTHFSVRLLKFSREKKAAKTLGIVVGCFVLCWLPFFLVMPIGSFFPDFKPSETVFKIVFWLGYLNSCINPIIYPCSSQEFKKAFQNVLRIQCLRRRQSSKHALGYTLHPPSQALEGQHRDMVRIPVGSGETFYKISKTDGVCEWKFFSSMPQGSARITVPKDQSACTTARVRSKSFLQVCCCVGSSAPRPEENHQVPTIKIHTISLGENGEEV
For the compound `CN1C[C@H](C(=O)N[C@]2(C)O[C@@]3(O)[C@@H]4CCCN4C(=O)[C@H](Cc4ccccc4)N3C2=O)C=C2c3cccc4[nH]cc(c34)C[C@H]21` [12'-hydroxy-2'-methyl-5'alpha-(phenylmethyl)ergotaman-3',6',18-trione], the affinity corresponds to a Ki of 12 nM. The result for `CC(C)C[C@H]1C(=O)N2CCC[C@H]2[C@]2(O)O[C@](NC(=O)[C@@H]3C[C@@H]4c5cccc6[nH]cc(c56)C[C@H]4N(C)C3)(C(C)C)C(=O)N12` [NSC_159729] reads 7 nM and 2.4 nM; that for `COc1cc2c3cc1Oc1cc(ccc1O)C[C@H]1c4c(cc(OC)c(O)c4Oc4ccc(cc4)C[C@@H]3N(C)CC2)CC[N+]1(C)C` [CAS_57-94-3], > 60000 nM and 6900 nM; that for `C#CCN(C)Cc1ccccc1` [N-benzyl-N-methylprop-2-yn-1-amine], 14000 nM and > 70000 nM.

In the case of `OC(CCN1CCCCC1)(c1ccccc1)C1CCCCC1` (stereo unspecified) [NSC_5572], the Ki was 5000 nM and 18000 nM. Consider `NCCc1ccc(O)cc1`, for which the Ki was 5900 nM and 23000 nM. Under `CN1CC(C(=O)N[C@]2(C)O[C@@]3(O)C4CCCN4C(=O)[C@H](Cc4ccccc4)N3C2=O)CC2c3cccc4[nH]cc(c34)CC21` (stereo partly drawn) [7-Methyl-4,6,6a,7,8,9,10,10a-octahydro-indolo[4,3-fg]quinoline-9-carboxylic acid ((2R,5S,10bS)-5-benzyl-10b-hydroxy-2-methyl-3,6-dioxo-octahydro-oxazolo[3,2-a]pyrrolo[2,1-c]pyrazin-2-yl)-amide] stands 2.4 nM and 3.5 nM; under `CC(C)NC[C@@H](O)c1ccc(O)c(O)c1`, 38000 nM and > 70000 nM. As for `CNC(=S)NCCCCc1cnc[nH]1` [1-[4-(1H-imidazol-5-yl)butyl]-3-methylthiourea], the Ki was 1030 nM and 1900 nM. As to `CC(C)[C@H]1C(=O)N2CCC[C@H]2[C@]2(O)O[C@](NC(=O)[C@@H]3C=C4c5cccc6[nH]cc(c56)C[C@H]4N(C)C3)(C(C)C)C(=O)N12` [ERGOCORNINE], the Ki is 11 nM and 10 nM. In the case of `CC(C)C[C@H]1C(=O)N2CCCC2[C@]2(O)O[C@](NC(=O)[C@@H]3C=C4c5cccc6[nH]cc(c56)CC4N(C)C3)(C(C)C)C(=O)N12` (stereo partly drawn) [ALPHA-ERGOCRYPTINE], the Ki was 8 nM and 9 nM. The result for `N=c1nc(N2CCCCC2)cc(N)n1O` [NSC_4201] reads > 60000 nM and 29000 nM; that for `c1ccc2c(c1)OCC(CN1CCN(CC3COc4ccccc4O3)CC1)O2` (stereo unspecified) [CAS_7762-32-5], 100 nM and 19 nM; that for `NCC(O)c1ccc(O)cc1` (racemic) [Octopamine,(+/-)], 1560 nM and 11000 nM. With `CC(C)C1(NC(=O)C2CC3c4cccc5[nH]cc(c45)CC3N(C)C2)OC2(O)C3CCCN3C(=O)C(Cc3ccccc3)N2C1=O` (stereo unspecified) [Dihydroergocristine], the Ki was 10 nM and 2.4 nM.

With `CC(C)[C@@]1(NC(=O)[C@@H]2C=C3c4cccc5[nH]cc(c45)C[C@H]3N(C)C2)O[C@@]2(O)[C@@H]3CCCN3C(=O)[C@H](Cc3ccccc3)N2C1=O` [SMR000058447], the Ki is 18 nM and 6.3 nM. Under `CN1CCc2cccc3c2[C@H]1Cc1ccc(O)c(O)c1-3` [APOKYN] stands 950 nM and 2300 nM. Under `N[C@H]1C[C@@H]1c1ccccc1` [(1S,2R)-(+)-2-phenylcyclopropylamine] stands 940 nM and 7000 nM; under `CN1C2CCC1CC(OC(c1ccccc1)c1ccccc1)C2` (stereo unspecified), 420 nM and 47 nM; under `CC(CO)NC(=O)C1C=C2c3cccc4[nH]cc(c34)CC2N(C)C1` (stereo unspecified) [CAS_60-79-7], 1400 nM and 1800 nM. The result for `CN(C)CCC=C1c2ccccc2CCc2ccccc21` reads 530 nM.

As to `NCCc1c[nH]c2ccc(O)cc12` [[3H]-5-HT], the Ki was 18000 nM and 23000 nM. The result for `CC[C@@H](CO)NC(=O)[C@@H]1C=C2c3cccc4c3c(cn4C)C[C@H]2N(C)C1` reads 4700 nM and 1900 nM. The result for `NNc1nncc2ccccc12` [NSC_3637] reads 7700 nM and 52000 nM; that for `ClCCN(Cc1ccccc1)Cc1ccccc1` [NSC_5820], 270 nM and 83 nM; that for `C[C@H](N)Cc1ccccc1` [beta-aminopropylbenzene], 1600 nM and 10000 nM and 2200 nM and 12000 nM.

With `CC(C)C1C(=O)N2CCCC2C2(O)OC(NC(=O)C3CC4c5cccc6[nH]cc(c56)CC4N(C)C3)(C(C)C)C(=O)N12` (stereo unspecified) [NSC_168871], the Ki is 9 nM and 3.7 nM. The result for `C[C@@H](N)Cc1ccc(O)cc1` [CAS_103-86-6] reads 5000 nM and 39000 nM; that for `CCCCCC(C)N` (stereo unspecified) [Tuaminoheptane], 7100 nM and 68000 nM; that for `CCN(CC)C(=O)[C@@H]1C=C2c3cccc4[nH]cc(c34)C[C@H]2N(C)C1` [(4R,7R)-N,N-diethyl-6-methyl-6,11-diazatetracyclo[7.6.1.0^{2,7}.0^{12,16}]hexadeca-1(16),2,9,12,14-pentaene-4-carboxamide], 220 nM.

Take `CC(C)C[C@H]1C(=O)N2CCC[C@H]2[C@]2(O)O[C@](NC(=O)[C@@H]3C=C4c5cccc6[nH]c(Br)c(c56)C[C@H]4N(C)C3)(C(C)C)C(=O)N12` [Bromocriptine+ (GTP+)]: the Ki is 9 nM and 16 nM.

The term Ki denotes a dissociation constant, usually derived from enzyme kinetics or from competition with a known ligand. Read a low Ki as a stronger hold on the target.

The record behind these values is BindingDB's records for PubMed 17827 (1977).
